In one experiment the target is T1, TBK1 (Homo sapiens, UniProt Q9UHD2).
T1 sequence (Q9UHD2 1-729): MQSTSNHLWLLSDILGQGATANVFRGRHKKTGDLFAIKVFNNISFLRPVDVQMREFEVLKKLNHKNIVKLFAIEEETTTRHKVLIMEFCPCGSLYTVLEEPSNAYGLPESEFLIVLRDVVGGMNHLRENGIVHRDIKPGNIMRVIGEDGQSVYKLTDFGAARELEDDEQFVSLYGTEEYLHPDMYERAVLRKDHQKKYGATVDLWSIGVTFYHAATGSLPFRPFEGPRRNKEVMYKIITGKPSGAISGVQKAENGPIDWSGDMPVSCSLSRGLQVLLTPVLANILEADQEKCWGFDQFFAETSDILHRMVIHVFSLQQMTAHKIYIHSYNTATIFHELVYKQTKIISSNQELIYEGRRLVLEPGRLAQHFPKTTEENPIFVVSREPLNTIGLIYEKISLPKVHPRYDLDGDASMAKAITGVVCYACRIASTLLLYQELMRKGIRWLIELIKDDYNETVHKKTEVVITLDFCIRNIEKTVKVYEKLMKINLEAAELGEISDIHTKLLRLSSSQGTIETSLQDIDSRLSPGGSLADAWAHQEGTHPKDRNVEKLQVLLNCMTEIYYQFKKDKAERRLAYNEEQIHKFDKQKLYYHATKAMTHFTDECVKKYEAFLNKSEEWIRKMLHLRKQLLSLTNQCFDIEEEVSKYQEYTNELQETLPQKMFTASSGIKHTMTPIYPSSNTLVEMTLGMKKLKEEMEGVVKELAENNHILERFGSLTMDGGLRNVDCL
The experiment in a line: TBK Biochemical Assay. The following applies: read-out: TBK1 IC50. Put shortly:
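Caliper LabChip mobility-shift readout of substrate and product after 90 min of TBK1 reaction at 25° C and stop-buffer addition. Compounds tested in 1:4 serial dilution over 10 points from 30 uM final at 1% DMSO; staurosporine 10 uM final defines full inhibition.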

Another experiment addresses T2, IKKε (Homo sapiens, UniProt Q14164).
T2 sequence (Q14164 1-716): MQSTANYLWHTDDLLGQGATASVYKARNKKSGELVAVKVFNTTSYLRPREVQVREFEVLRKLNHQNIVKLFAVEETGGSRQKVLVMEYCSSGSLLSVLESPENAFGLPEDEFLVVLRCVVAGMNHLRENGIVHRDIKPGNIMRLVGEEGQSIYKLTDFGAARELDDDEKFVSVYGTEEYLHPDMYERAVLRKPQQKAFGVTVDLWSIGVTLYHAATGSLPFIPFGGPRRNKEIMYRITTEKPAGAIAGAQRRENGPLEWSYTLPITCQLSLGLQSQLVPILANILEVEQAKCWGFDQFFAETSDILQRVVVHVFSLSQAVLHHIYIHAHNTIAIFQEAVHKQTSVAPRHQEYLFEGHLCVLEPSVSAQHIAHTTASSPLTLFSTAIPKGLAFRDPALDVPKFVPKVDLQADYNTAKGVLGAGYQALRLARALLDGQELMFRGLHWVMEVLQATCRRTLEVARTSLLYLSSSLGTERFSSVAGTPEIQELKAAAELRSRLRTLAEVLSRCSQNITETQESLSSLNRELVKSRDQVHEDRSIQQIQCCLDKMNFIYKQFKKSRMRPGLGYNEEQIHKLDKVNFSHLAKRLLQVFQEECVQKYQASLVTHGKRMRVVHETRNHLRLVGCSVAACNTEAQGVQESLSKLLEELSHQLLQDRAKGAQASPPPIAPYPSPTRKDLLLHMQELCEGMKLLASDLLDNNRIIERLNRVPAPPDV
The experiment in a line: IKKe Biochemical Assay. To be noted: read-out: IKKε IC50. In outline:
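Activity was measured as mobility-shift separation of phosphorylated from unphosphorylated substrate on a LabChip EZ Reader. Compound was titrated from 30 uM final in 10 points, 1:4 steps, with 1% DMSO, and enzyme plus substrate reacted 90 min at 25° C before stop buffer. Control wells held 10 uM staurosporine.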

Experiment [1] deals with phosphorylation of the IRF-3 protein in MDA-MB-468 cells. The experiment in a line: pIRF3 immunocytochemistry cell based assay. To be noted: MDA-MB-468 cells, Poly(I:C) stimulation, read-out: pIRF3 IC50. Put shortly:
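After 2 h stimulation with Poly(I:C) (10 ug/ml), following 1 h compound pre-treatment (10-point, 3-fold dilution, top 10 uM), MDA-MB-468 cells were fixed and stained with anti-pIRF3 antibody. pIRF3 fluorescence was normalized to PI staining or cell count on an Acumen cytometer. IC50 curves were derived from this.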

Molecules are shown by their SMILES. Where two headings read alike, the source gives them in different places. Some results are limits rather than exact numbers.

Turning to `COc1cc(C(=O)N2CC3CC(C2)O3)cnc1-c1cc2nccc(-c3ccc(OC4CCOCC4)c(C#N)c3)c2o1` [Compound 435, 5-[2-[3-methoxy-5-([6-oxa-3-azabicyclo[3.1.1]heptan-3-yl]carbonyl)pyridin-2-yl]furo[3,2-b]pyridin-7-yl]-2-(oxan-4-yloxy)benzonitrile], the IC50 (on TBK1; at IKKε; in experiment [1] (Homo sapiens)) was less than 100 nM each time.

Take `COc1cc(C(=O)N(C)C)cnc1-c1cc2nccc(-c3ccc(NC4C5COCC54)c(C#N)c3)c2o1` (stereo not drawn) [Compound 436, 6-[7-[3-cyano-4-([3-oxabicyclo[3.1.0]hexan-6-yl]amino)phenyl]furo[3,2-b]pyridin-2-yl]-5-methoxy-N,N-dimethylpyridine-3-carboxamide]: the IC50 (at TBK1; on IKKε; in experiment [1] (Homo sapiens)) was less than 100 nM each time.

As to `COc1cc(C(=O)N(C)C)ncc1-c1cc2nccc(-c3ccc(NC4C5COCC54)c(C#N)c3)c2o1` (stereo not drawn) [Compound 437, 5-[7-[3-cyano-4-([3-oxabicyclo[3.1.0]hexan-6-yl]amino)phenyl]furo[3,2-b]pyridin-2-yl]-4-methoxy-N,N-dimethylpyridine-2-carboxamide], the results for the half-inhibitory concentration (IC50) (on TBK1; on IKKε; in experiment [1] (Homo sapiens)) were less than 100 nM, less than 100 nM and 100 to 1000 nM, respectively.

For `COc1cc(C(=O)NC2CN3CCC2CC3)cnc1-c1cc2nccc(-c3ccc(N4CCC(F)C4)c(C#N)c3)c2o1` (stereo not drawn) [Compound 438, N-[1-azabicyclo[2.2.2]octan-3-yl]-6-[7-[3-cyano-4-(3-fluoropyrrolidin-1-yl)phenyl]furo[3,2-b]pyridin-2-yl]-5-methoxypyridine-3-carboxamide], the IC50 (commonly the concentration needed to halve the response being measured) is less than 100 nM on TBK1, less than 100 nM on IKKε and 100 to 1000 nM in experiment [1] (Homo sapiens).

Regarding `COc1cc(C(=O)NC2CN3CCC2CC3)cnc1-c1cc2nccc(-c3ccc(N4CC[C@H](F)C4)c(C#N)c3)c2o1` (stereo partly drawn) [Compound 439, N—(S)-1-Aza-bicyclo[2.20.2]oct-3-yl-6-{7-[3-cyano-4-((S)-3-fluoro-pyrrolidin-1-yl)-phenyl]-furo[3,2-b]pyridin-2-yl}-5-methoxy-nicotinamide], the concentration for half-maximal inhibition (IC50) at TBK1 was less than 100 nM; on IKKε, less than 100 nM; in experiment [1] (Homo sapiens), 100 to 1000 nM.

On to `COc1cc(C(=O)NC2CN3CCC2CC3)cnc1-c1cc2nccc(-c3ccc(N4CC[C@@H](F)C4)c(C#N)c3)c2o1` (stereo partly drawn) [Compound 440, N—(S)-1-Aza-bicyclo[2.20.2]oct-3-yl-6-{7-[3-cyano-4-((R)-3-fluoro-pyrrolidin-1-yl)-phenyl]-furo[3,2-b]pyridin-2-yl}-5-methoxy-nicotinamide], for which the half-maximal inhibitory concentration (IC50) was less than 100 nM at TBK1, less than 100 nM at IKKε and 100 to 1000 nM in experiment [1] (Homo sapiens).

On to `COc1cc(C(=O)NC2CN3CCC2CC3)cnc1-c1cc2nccc(-c3ccc(N4CC[C@H](F)C4)c(C#N)c3)c2o1` (stereo partly drawn) [Compound 441, N—(R)-1-Aza-bicyclo[2.20.2]oct-3-yl-6-{7-[3-cyano-4-((S)-3-fluoro-pyrrolidin-1-yl)-phenyl]-furo[3,2-b]pyridin-2-yl}-5-methoxy-nicotinamide], for which the IC50 at TBK1 is less than 100 nM; at IKKε it was less than 100 nM; in experiment [1], 100 to 1000 nM.

Turning to `COc1cc(C(=O)NC2CN3CCC2CC3)cnc1-c1cc2nccc(-c3ccc(N4CC[C@@H](F)C4)c(C#N)c3)c2o1` (stereo partly drawn) [Compound 442, N—(R)-1-Aza-bicyclo[2.20.2]oct-3-yl-6-{7-[3-cyano-4-((R)-3-fluoro-pyrrolidin-1-yl)-phenyl]-furo[3,2-b]pyridin-2-yl}-5-methoxy-nicotinamide], the IC50 on TBK1 was less than 100 nM; on IKKε, less than 100 nM; in experiment [1], 100 to 1000 nM.

Take `COc1cc(C(=O)NC2CN3CCC2CC3)ncc1-c1cc2nccc(-c3ccc(N4CCC(F)C4)c(C#N)c3)c2o1` (stereo not drawn) [Compound 443, N-[1-azabicyclo[2.2.2]octan-3-yl]-5-[7-[3-cyano-4-(3-fluoropyrrolidin-1-yl)phenyl]furo[3,2-b]pyridin-2-yl]-4-methoxypyridine-2-carboxamide]: the IC50 on TBK1 was less than 100 nM; at IKKε it was less than 100 nM; in experiment [1] (Homo sapiens), 100 to 1000 nM.

`COc1cc(C(=O)N[C@@H]2CN3CCC2CC3)ncc1-c1cc2nccc(-c3ccc(N4CC[C@H](F)C4)c(C#N)c3)c2o1` [Compound 444, 5-{7-[3-Cyano-4-((S)-3-fluoro-pyrrolidin-1-yl)-phenyl]-furo[3,2-b]pyridin-2-yl}-4-methoxy-pyridine-2-carboxylic acid (1-aza-bicyclo[2.20.2]oct-3-yl)-amide]: the IC50 (on TBK1; at IKKε; in experiment [1] (Homo sapiens)) was less than 100 nM each time.

Turning to `COc1cc(C(=O)N[C@@H]2CN3CCC2CC3)ncc1-c1cc2nccc(-c3ccc(N4CC[C@@H](F)C4)c(C#N)c3)c2o1` [Compound 445, 5-{7-[3-Cyano-4-((R)-3-fluoro-pyrrolidin-1-yl)-phenyl]-furo[3,2-b]pyridin-2-yl}-4-methoxy-pyridine-2-carboxylic acid (1-aza-bicyclo[2.20.2]oct-3-yl)-amide], the IC50 (on TBK1; on IKKε; in experiment [1] (Homo sapiens)) was less than 100 nM each time.

Regarding `COc1cc(C(=O)N2CC[C@H](N(C)C)C2)cnc1-c1cc2nccc(-c3ccc(N4CC[C@H](F)C4)c(C#N)c3)c2o1` [Compound 447, 5-{2-[5-((S)-3-Dimethylamino-pyrrolidine-1-carbonyl)-3-methoxy-pyridin-2-yl]-furo[3,2-b]pyridin-7-yl}-2-((S)-3-fluoro-pyrrolidin-1-yl)-benzonitrile], the IC50 (on TBK1; on IKKε; in experiment [1] (Homo sapiens)) was less than 100 nM each time.

Take `COc1cc(C(=O)N2CC[C@H](N(C)C)C2)cnc1-c1cc2nccc(-c3ccc(N4CC[C@@H](F)C4)c(C#N)c3)c2o1` [Compound 448, 5-{2-[5-((S)-3-Dimethylamino-pyrrolidine-1-carbonyl)-3-methoxy-pyridin-2-yl]-furo[3,2-b]pyridin-7-yl}-2-((R)-3-fluoro-pyrrolidin-1-yl)-benzonitrile]: the half-inhibitory concentration (IC50) (on TBK1; on IKKε; in experiment [1] (Homo sapiens)) was less than 100 nM in each case.

With `COc1cc(C(=O)N2CC[C@H](N(C)C)C2)ncc1-c1cc2nccc(-c3ccc(N4CC[C@H](F)C4)c(C#N)c3)c2o1` [Compound 449, 5-[2-(6-[[(3S)-3-(dimethylamino)pyrrolidin-1-yl]carbonyl]-4-methoxypyridin-3-yl)furo[3,2-b]pyridin-7-yl]-2-[(3S)-3-fluoropyrrolidin-1-yl]benzonitrile], the IC50 (on TBK1; on IKKε; in experiment [1] (Homo sapiens)) was less than 100 nM each time.

Consider `COc1cc(C(=O)N2CC[C@@H](N(C)C)C2)ncc1-c1cc2nccc(-c3ccc(N4CC[C@H](F)C4)c(C#N)c3)c2o1` [Compound 450, 5-[2-(6-[[(3R)-3-(dimethylamino)pyrrolidin-1-yl]carbonyl]-4-methoxypyridin-3-yl)furo[3,2-b]pyridin-7-yl]-2-[(3S)-3-fluoropyrrolidin-1-yl]benzonitrile], for which the half-maximal inhibitory concentration (IC50) on TBK1 was less than 100 nM; at IKKε, less than 100 nM; in experiment [1] (Homo sapiens), 100 to 1000 nM.
